{"source": "patent US10500222B2", "about": "“Compositions and methods relating to treatment of infection” (Wayne State University, priority 2015, dated 2019)", "key": {"[1]": {"tested_on": "P. aeruginosa KEI 1025", "assay": "Quantification of viable bacteria (plate count), KEI 1025 infection", "assay_type": "in vivo, C57BL/6 (B6) mice", "conditions": "vs PBS; for bacterial load (plate count): post treatment: subconj. 6 hours p.i. + IP 1 and 3 days p.i.; for bacterial load in the corneas (plate count): pretreatment subconj. + IP", "protocol": "(§1) The left eyes of B6 mice (n=5/group/time) were injected with 5 μl of 2 μg/μl glycyrrhizin (GLY) (Sigma-Aldrich, St. Louis, Mo.) or PBS (control) subconjunctivally, one day before infection. Similar treatment was done using carbenoxolone (CBX) (Sigma-Aldrich, St. Louis, Mo.). All mice were injected intraperitoneally (IP) at 1 and 3 days p.i. with 100 μl of GLY (2 μg/μl) or CBX (1 μg/μl). PBS served as control for all these experiments. In a separate similar experiment mice were treated one day before infection with GLY subconjunctivally and injected intraperitoneally (i.p.) with GLY plus recombinant (r) HMGB1 (1 μg/100 μl) or GLY plus PBS. IP injections were similarly given at 1 and 3 days p.i. In an additional experiment, KEI 1025 infected B6 mice were treated with 5 μl of 2 μg/μl GLY subconjunctivally at 6 hours p.i. and injected intraperitoneally at 1 and 3 days p.i. with 100 μl of GLY (2 μg/μl).\nMice were sacrificed at 3 and 5 days p.i. and KEI 1025 or ATCC strain 19660 infected corneas from GLY, CBX or PBS (or GLY+/−rHMGB1) treated B6 mice were harvested (n=5/group/time). Each cornea was homogenized in 1 ml of sterile saline (0.85% NaCl, pH 7.4) containing 0.25% BSA. A 100 μl of the corneal homogenate was serially diluted (1:10) in sterile saline containing 0.25% BSA. Selected dilutions were plated in triplicate on selective culture medium (Difco™ Pseudomonas Isolation Agar, BD Biosciences, Inc., Franklin Lakes, N.J.). Plates were incubated overnight at 37° C. and viable bacteria manually counted. Results are reported as log10 CFU/cornea±SEM."}, "[2]": {"tested_on": "P. aeruginosa KEI 1025 infected cornea", "assay": "Ocular response to bacterial infection (clinical score, slit lamp), KEI 1025 keratitis", "assay_type": "in vivo, C57BL/6 (B6) mice", "conditions": "for opacity, slit lamp photographs / clinical scores: vs PBS", "from_the_text": "P. aeruginosa strains, KEI 1025, a non-cytotoxic clinical isolate strain expressing exoT and exoS, and not expressing exoU, described in Estrellas P S, Jr., et al., Curr Eye Res. 2000; 20:157-165 (obtained from Kresge Eye Institute, Detroit, Mich.), and a cytotoxic strain, 19660, expressing exoU, described in Finck-Barbancon V, et al., Mol Microbiol. 1997; 25:547-557; and Fleiszig S M, et al., Infect Immun. 1997; 65:579-586 (obtained from American Type Culture Collection, ATCC, Manassas, Va.), were grown in peptone tryptic soy broth (PTSB) medium in a rotary shaker water bath at 37° C. and 150 rpm for 18 h to an optical density (measured at 540 nm) between 1.3-1.8. Bacterial cultures were pelleted by centrifugation at 5,500 g for 10 min. Pellets were washed once with sterile saline, re-centrifuged, re-suspended and diluted in sterile saline. Anesthetized (using anhydrous ethyl ether) mice were placed beneath a stereoscopic microscope at 40× magnification. The left cornea was scarified with three 1-mm incisions using a sterile 25^5/8 gauge needle. The wounded corneal surface was topically treated with 5 μl containing 1×10^7 CFU/μl (KEI 1025) or 1×10^6 CFU/μl (ATCC strain 19660) of the P. aeruginosa suspension.\nAn established corneal disease grading scale, described in detail in Hazlett L D, et al., Invest Ophthalmol Vis Sci. 1987; 28:1978-1985, was used to assign a clinical score value to each infected eye at 1, 3 and 5 days post infection (p.i.). Clinical scores were designated as: 0=clear or slight opacity, partially or fully covering the pupil; +1=slight opacity, fully covering the anterior segment; +2=dense opacity, partially or fully covering the pupil; +3=dense opacity, covering the entire anterior segment; and +4=corneal perforation or phthisis. Clinical scores were used to statistically compare disease severity and were accompanied by photographs using a slit lamp (5 days p.i.) to confirm and illustrate the response.\nas §1"}, "[3]": {"tested_on": "protein levels in P. aeruginosa ATCC strain 19660 infected cornea", "assay": "ELISA of corneal proteins, strain 19660 infection", "assay_type": "in vivo, C57BL/6 (B6) mice", "conditions": "vs PBS", "protocol": "as §1\nKEI 1025 or ATCC strain 19660 infected GLY or PBS treated, B6 mice (n=5/group/time) were sacrificed at 3 and 5 days p.i. and normal and infected corneas harvested. To quantify IL-1β and CXCL2 proteins, individual corneas were homogenized in 1 ml of 50 mM potassium phosphate buffer (pH 6.0) containing 0.5% HTAB (hexadecyltrimethylammonium bromide, Sigma). To quantify HMGB1, cathelicidin-related antimicrobial peptide (CRAMP), mouse beta defensin 2 (mBD2) and mouse beta defensin 3 (mBD3) protein levels, individual corneas were homogenized in 500 μl of PBS containing 0.1% Tween 20 (Sigma) and protease inhibitors (Roche, Indianapolis, Ind.). Corneal homogenates were centrifuged at 12,000 g for 10 min. A 50 μl aliquot of each supernatant was assayed in duplicate to quantify IL-1β, CXCL2, HMGB1 and mBD2 proteins. A 100 μl aliquot of CRAMP and mBD3 supernatant was assayed in duplicate to quantify corresponding protein levels. Undiluted supernatant aliquots were used to quantify all proteins except CXCL2 (1:2 dilution) and HMGB1 (1:5 dilution). An HMGB1 ELISA kit was purchased from Chondrex Inc., Redmond, Wash. CRAMP, mBD2 and mBD3 ELISA kits were purchased from MyBioSource, Inc., San Diego, Calif. All other ELISA kits were purchased from R&D Systems, Minneapolis, Minn. Assays were run following the manufacturer's instructions. Sensitivities of the assays were: 2.31 […] (mBD3)."}, "[4]": {"tested_on": "P. aeruginosa KEI 1025", "assay": "Bacterial growth and Minimum Inhibitory Concentration (MIC), strain KEI 1025", "assay_type": "cell-based, Pseudomonas aeruginosa", "conditions": "for absorbance values of bacterial cultures: vs growth control"}, "[5]": {"conditions": "subconj. 1 day before infection + IP 1 and 3 days p.i., 5 days p.i."}}, "note": "Entries after “also recorded” stand apart in the source; their conditions may differ.", "data": [{"compound": "CC1(C)[C@@H](O[C@H]2O[C@H](C(=O)O)[C@@H](O)[C@H](O)[C@H]2O[C@@H]2O[C@H](C(=O)O)[C@@H](O)[C@H](O)[C@H]2O)CC[C@]2(C)[C@H]3C(=O)C=C4[C@@H]5C[C@@](C)(C(=O)O)CC[C@]5(C)CC[C@@]4(C)[C@]3(C)CC[C@@H]12", "note": "[GLY, glycyrrhizin]", "values": [{"measurement": "bacterial load (plate count)", "setting": "[1]; 3 days p.i.", "result": "reduced significantly"}, {"measurement": "bacterial load (plate count)", "setting": "[1]; 5 days p.i.", "result": "reduced significantly"}, {"measurement": "bacterial load in the corneas (plate count)", "setting": "[1]; 3 days p.i.", "result": "reduced"}, {"measurement": "bacterial load in the corneas (plate count)", "setting": "[1]; 5 days p.i.", "result": "reduced"}, {"measurement": "opacity, slit lamp photographs", "setting": "[2]; post treatment: subconj. 6 hours p.i. + IP 1 and 3 days p.i.", "result": "decreased opacity"}, {"measurement": "clinical scores", "setting": "[2]; post treatment: subconj. 6 hours p.i. + IP 1 and 3 days p.i., 1 day p.i.", "result": "seen only at 3 and 5 days p.i."}, {"measurement": "clinical scores", "setting": "[2]; post treatment: subconj. 6 hours p.i. + IP 1 and 3 days p.i., 3 days p.i.", "result": "Reduced clinical scores"}, {"measurement": "clinical scores", "setting": "[2]; post treatment: subconj. 6 hours p.i. + IP 1 and 3 days p.i., 5 days p.i.", "result": "Reduced clinical scores"}, {"measurement": "infiltrate, slit lamp photographs", "setting": "[2]; pretreatment, 5 days p.i., GLY compared with CBX treated eyes", "result": "less infiltrate"}, {"measurement": "clinical scores", "setting": "[2]; subconj. 1 day before infection + IP 1 and 3 days p.i., 1 day p.i.", "result": "significantly less corneal disease with lower clinical scores; also recorded: reduced significantly"}, {"measurement": "clinical scores", "setting": "[2]; subconj. 1 day before infection + IP 1 and 3 days p.i., 3 days p.i.", "result": "significantly less corneal disease with lower clinical scores; also recorded: reduced significantly"}, {"measurement": "clinical scores", "setting": "[2]; [5]", "result": "significantly less corneal disease with lower clinical scores; also recorded: reduced significantly"}, {"measurement": "opacity, slit lamp photographs", "setting": "[2]; [5]", "result": "reduced opacity"}, {"measurement": "CXCL2 protein levels", "setting": "[3]; strain 19660, 3 days p.i.", "result": "downregulated significantly"}, {"measurement": "CXCL2 protein levels", "setting": "[3]; strain 19660, 5 days p.i.", "result": "downregulated significantly"}, {"measurement": "HMGB1 protein", "setting": "[3]; strain 19660, normal cornea and infected groups", "result": "no significant differences"}, {"measurement": "CXCL2 protein", "setting": "[3]; strain 19660 experiment, normal cornea", "result": "No differences"}, {"measurement": "MIC50", "setting": "[4]; Pseudomonas aeruginosa, KEI1025, strain KEI 1025, 50% decrease in absorbance at 540 nm, 37° C., 18 h", "result": 20, "unit": "mg/mL"}, {"measurement": "MIC90", "setting": "[4]; Pseudomonas aeruginosa, KEI1025, strain KEI 1025, 90% decrease in absorbance at 540 nm, 37° C., 18 h", "result": 40, "unit": "mg/mL"}, {"measurement": "Minimum Inhibitory Concentration 50 (MIC50)", "setting": "[4]; non-cytotoxic strains", "result": 20, "unit": "milligrams/milliliter"}, {"measurement": "absorbance values of bacterial cultures", "setting": "[4]; strain KEI 1025, grown with 20 mg/ml GLY", "result": "significantly reduced"}, {"measurement": "absorbance values of bacterial cultures", "setting": "[4]; strain KEI 1025, grown with 40 mg/ml GLY", "result": "significantly reduced"}]}]}
